From patent EP4725957A1, “GROUP OF CYCLIC ALKALINE LIPOPEPTIDE COMPOUNDS, AND PREPARATION METHOD THEREFOR AND USE THEREOF” (Institute of Medicinal Biotechnology, Chinese Academy of …, priority 2023, dated 2024)
Converted amounts (≈) assume the structure as drawn. Bridge positions count the residues as written; N and C are the ends. Square brackets hold non-standard residues; d marks the D form. Peptide text beside a SMILES is read from it. * marks the point of attachment. Heptanoyl(6-Me) = CC(C)CCCCC(=O)*; Sulfomethyl = O=S(=O)(O)C*; dOrn = NCCC[C@@H](N)C(=O)O; Nonanoyl = CCCCCCCCC(=O)*; X1 = CC[C@H](C)CCCCC(=O)*; dDab = NCC[C@@H](N)C(=O)O; Heptanoyl = CCCCCCC(=O)*; Orn = NCCC[C@H](N)C(=O)O; dDap = NC[C@@H](N)C(=O)O; Dab = NCC[C@H](N)C(=O)O; Dap = NC[C@H](N)C(=O)O

Key:
Format in all cases: cell-based
[1] = Nephrotoxicity assay: in vitro cytotoxicity of HK-2 cells by CCK-8 assay; details: human, HK-2 cells (human renal), 72 h incubation with drug-containing medium
Outline: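 Compounds in sterile water, diluted to final 500, 250, 200, 100, 50, 25 and 12.5 µg/mL, were applied for 72 h to human HK-2 kidney cells. Absorbance at 450 nm after 3 h CCK-8 gave viability against untreated wells, and IC50 came from logarithmic regression; three replicates.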

[2] = system: Klebsiella pneumoniae ATCC BAA-1705 (KPC); details: ATCC BAA-1705
Outline: (§1)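 MIC by CLSI broth microdilution; MH broth; final drug 64–0.03 mg/L, 2-fold; inoculum (2-4) × 10^5 CFU/mL from 0.5 McFarland suspension of 18-24 h colonies; 35-37°C, 16-20 h; growth controls included.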

[3] = system: Acinetobacter baumannii ABA19-1; details: ABA19-1
Outline: as §1

[4] = system: Klebsiella pneumoniae KPN+19-15; details: KPN+19-15
Outline: as §1

[5] = system: Pseudomonas aeruginosa PAE19-3; details: PAE19-3
Outline: as §1

[6] = system: Pseudomonas aeruginosa ATCC 27853; details: ATCC 27853
Outline: as §1

[7] = system: Acinetobacter baumannii NCTC 13304 (OXA-27); details: NCTC 13304
Outline: as §1

[8] = system: Escherichia coli ATCC BAA-2340 (KPC); details: ATCC BAA-2340
Outline: as §1

[9] = system: Escherichia coli ATCC BAA-2523; details: ATCC BAA-2523
Outline: as §1

| Compound | IC50 at 72 h [1] | MIC [2] | MIC [3] | MIC [4] | MIC [5] | MIC [6] | MIC [7] | MIC [8] | MIC [9] |
| --- | --- | --- | --- | --- | --- | --- | --- | --- | --- |
| CC(C)CCCCC(=O)N[C@@H](CN)C(=O)N[C@H](C(=O)N[C@H](CO)C(=O)N[C@H]1CCNC(=O)[C@H]([C@@H](C)O)NC(=O)[C@H](CCN)NC(=O)[C@H](CCN)NC(=O)[C@H]([C@@H](C)O)NC(=O)[C@@H](Cc2ccccc2)NC(=O)[C@H](CCN)NC1=O)[C@@H](C)O [Compound 52, 6-methylheptanoyl-Dap-Thr-D-Ser-ring(4-10)[Dab-Dab-D-Phe-Thr-Dab-Dab-Thr]] ({Heptanoyl(6-Me)}-[Dap]T[dS][Dab][Dab][dF]T[Dab][Dab]T; lactam 4-C) | > 500 µg/mL | 0.25 µg/mL (≈ 0.217 µM) | 0.25 µg/mL (≈ 0.217 µM) | 0.5 µg/mL (≈ 0.435 µM) | 4 µg/mL (≈ 3.48 µM) | 64 µg/mL (≈ 55.6 µM) | 0.25 µg/mL (≈ 0.217 µM) | ≤0.03 µg/mL | ≤0.03 µg/mL |
| CC(C)CCCCC(=O)N[C@@H](CCN)C(=O)N[C@H](C(=O)N[C@H](COCS(=O)(=O)O)C(=O)N[C@H]1CCNC(=O)[C@H]([C@@H](C)O)NC(=O)[C@H](CCN)NC(=O)[C@H](CCN)NC(=O)[C@H]([C@@H](C)O)NC(=O)[C@@H](Cc2ccccc2)NC(=O)[C@H](CCN)NC1=O)[C@@H](C)O [Compound 103, 6-methylheptanoyl-Dab-Thr-D-Ser(CH2SO3H)-ring(4-10)[Dab-Dab-D-Phe-Thr-Dab-Dab-Thr]] ({Heptanoyl(6-Me)}-[Dab]T[dS](Sulfomethyl)[Dab][Dab][dF]T[Dab][Dab]T; lactam 4-C) | > 500 µg/mL | 0.125 µg/mL (≈ 0.0993 µM) | 0.06 µg/mL (≈ 0.0477 µM) | 0.125 µg/mL (≈ 0.0993 µM) | 0.25 µg/mL (≈ 0.199 µM) | 0.25 µg/mL (≈ 0.199 µM) | 0.06 µg/mL (≈ 0.0477 µM) | 0.03 µg/mL (≈ 0.0238 µM) | 0.03 µg/mL (≈ 0.0238 µM) |
| CC(C)CCCCC(=O)N[C@@H](CCN)C(=O)N[C@H](C(=O)N[C@H](CO)C(=O)N[C@H]1CCNC(=O)[C@H]([C@@H](C)O)NC(=O)[C@H](CCCN)NC(=O)[C@H](CCN)NC(=O)[C@H]([C@@H](C)O)NC(=O)[C@@H](Cc2ccccc2)NC(=O)[C@H](CCN)NC1=O)[C@@H](C)O [Compound 87, 6-methylheptanoyl-Dab-Thr-D-Ser-ring(4-10)[Dab-Dab-D-Phe-Thr-Dab-Orn-Thr]] ({Heptanoyl(6-Me)}-[Dab]T[dS][Dab][Dab][dF]T[Dab][Orn]T; lactam 4-C) | > 500 µg/mL | 0.25 µg/mL (≈ 0.212 µM) | 0.06 µg/mL (≈ 0.0509 µM) | 0.5 µg/mL (≈ 0.424 µM) | 64 µg/mL (≈ 54.3 µM) | >64 µg/mL | ≤0.03 µg/mL | 0.03 µg/mL (≈ 0.0255 µM) | 0.03 µg/mL (≈ 0.0255 µM) |
| CCCCCCCCC(=O)N[C@@H](CCN)C(=O)N[C@H](C(=O)N[C@H](CN)C(=O)N[C@H]1CCNC(=O)[C@H]([C@@H](C)O)NC(=O)[C@H](CCN)NC(=O)[C@H](CCN)NC(=O)[C@H]([C@@H](C)O)NC(=O)[C@@H](Cc2ccccc2)NC(=O)[C@H](CCN)NC1=O)[C@@H](C)O [Compound 5, Nonanoyl-Dab-Thr-D-Dap-ring(4-10)[Dab-Dab-D-Phe-Thr-Dab-Dab-Thr]] (Nonanoyl-[Dab]T[dDap][Dab][Dab][dF]T[Dab][Dab]T; lactam 4-C) | 380 ± 30.5 µg/mL (≈ 323 µM) | 0.06 µg/mL (≈ 0.051 µM) | 0.06 µg/mL (≈ 0.051 µM) | 0.06 µg/mL (≈ 0.051 µM) | 0.5 µg/mL (≈ 0.425 µM) | 0.06 µg/mL (≈ 0.051 µM) | 0.06 µg/mL (≈ 0.051 µM) | 0.06 µg/mL (≈ 0.051 µM) | 0.06 µg/mL (≈ 0.051 µM) |
| CC[C@H](C)CCCCC(=O)N[C@@H](CCN)C(=O)N[C@H](C(=O)N[C@H](CCN)C(=O)N[C@H]1CCNC(=O)[C@H]([C@@H](C)O)NC(=O)[C@H](CCN)NC(=O)[C@H](CCN)NC(=O)[C@H]([C@@H](C)O)NC(=O)[C@@H](Cc2ccccc2)NC(=O)[C@H](CCN)NC1=O)[C@@H](C)O [Compound 11, (S)-6-methyloctanoyl-Dab-Thr-D-Dab-ring(4-10)[Dab-Dab-D-Phe-Thr-Dab-Dab-Thr]] (X1-[Dab]T[dDab][Dab][Dab][dF]T[Dab][Dab]T; lactam 4-C) | 371 ± 54.6 µg/mL (≈ 311 µM) | ≤0.03 µg/mL | ≤0.03 µg/mL | ≤0.03 µg/mL | 1 µg/mL (≈ 0.839 µM) | 1 µg/mL (≈ 0.839 µM) | ≤0.03 µg/mL | ≤0.03 µg/mL | ≤0.03 µg/mL |
| CCCCCCCCC(=O)N[C@@H](CCN)C(=O)N[C@H](C(=O)N[C@H](CCCN)C(=O)N[C@H]1CCNC(=O)[C@H]([C@@H](C)O)NC(=O)[C@H](CCN)NC(=O)[C@H](CCN)NC(=O)[C@H]([C@@H](C)O)NC(=O)[C@@H](Cc2ccccc2)NC(=O)[C@H](CCN)NC1=O)[C@@H](C)O [Compound 25, Nonanoyl-Dab-Thr-D-Orn-ring(4-10)[Dab-Dab-D-Phe-Thr-Dab-Dab-Thr]] (Nonanoyl-[Dab]T[dOrn][Dab][Dab][dF]T[Dab][Dab]T; lactam 4-C) | 338 ± 15.1 µg/mL (≈ 280 µM) | 0.06 µg/mL (≈ 0.0498 µM) | 0.125 µg/mL (≈ 0.104 µM) | 0.125 µg/mL (≈ 0.104 µM) | 2 µg/mL (≈ 1.66 µM) | 0.5 µg/mL (≈ 0.415 µM) | 0.06 µg/mL (≈ 0.0498 µM) | ≤0.03 µg/mL | ≤0.03 µg/mL |
| CCCCCCCCC(=O)N[C@@H](CCN)C(=O)N[C@H](C(=O)N[C@@H](CN)C(=O)N[C@H]1CCNC(=O)[C@H]([C@@H](C)O)NC(=O)[C@H](CCN)NC(=O)[C@H](CCN)NC(=O)[C@H](CC(C)C)NC(=O)[C@@H](Cc2ccccc2)NC(=O)[C@H](CCN)NC1=O)[C@@H](C)O [Compound 40, Nonanoyl-Dab-Thr-Dap-ring(4-10)[Dab-Dab-D-Phe-Leu-Dab-Dab-Thr]] (Nonanoyl-[Dab]T[Dap][Dab][Dab][dF]L[Dab][Dab]T; lactam 4-C) | 158 ± 6.4 µg/mL (≈ 133 µM) | 0.06 µg/mL (≈ 0.0504 µM) | 0.06 µg/mL (≈ 0.0504 µM) | 0.06 µg/mL (≈ 0.0504 µM) | 0.5 µg/mL (≈ 0.42 µM) | 0.06 µg/mL (≈ 0.0504 µM) | 0.06 µg/mL (≈ 0.0504 µM) | 0.06 µg/mL (≈ 0.0504 µM) | 0.06 µg/mL (≈ 0.0504 µM) |
| CCCCCCC(=O)N[C@@H](CCN)C(=O)N[C@H](C(=O)N[C@H](CCCN)C(=O)N[C@H]1CCNC(=O)[C@H]([C@@H](C)O)NC(=O)[C@H](CCN)NC(=O)[C@H](CCN)NC(=O)[C@H](CC(C)C)NC(=O)[C@@H](Cc2ccccc2)NC(=O)[C@H](CCN)NC1=O)[C@@H](C)O [Compound 44, Heptanoyl-Dab-Thr-D-Orn-ring(4-10)[Dab-Dab-D-Phe-Leu-Dab-Dab-Thr]] (Heptanoyl-[Dab]T[dOrn][Dab][Dab][dF]L[Dab][Dab]T; lactam 4-C) | 308 ± 9.7 µg/mL (≈ 259 µM) | 0.06 µg/mL (≈ 0.0504 µM) | 0.125 µg/mL (≈ 0.105 µM) | 0.125 µg/mL (≈ 0.105 µM) | 2 µg/mL (≈ 1.68 µM) | 0.5 µg/mL (≈ 0.42 µM) | 0.06 µg/mL (≈ 0.0504 µM) | 0.06 µg/mL (≈ 0.0504 µM) | 0.06 µg/mL (≈ 0.0504 µM) |
| CC(C)CCCCC(=O)N[C@@H](CCN)C(=O)N[C@H](C(=O)N[C@H](CO)C(=O)N[C@H]1CCNC(=O)[C@H]([C@@H](C)O)NC(=O)[C@H](CCN)NC(=O)[C@H](CCN)NC(=O)[C@H]([C@@H](C)OCS(=O)(=O)O)NC(=O)[C@@H](Cc2ccccc2)NC(=O)[C@H](CCN)NC1=O)[C@@H](C)O [Compound 105, 6-methylheptanoyl-Dab-Thr-D-Ser-ring(4-10)[Dab-Dab-D-Phe-Thr(CH2SO3H)-Dab-Dab-Thr]] ({Heptanoyl(6-Me)}-[Dab]T[dS][Dab][Dab][dF]T(Sulfomethyl)[Dab][Dab]T; lactam 4-C) | > 500 µg/mL | 0.125 µg/mL (≈ 0.0993 µM) | 0.06 µg/mL (≈ 0.0477 µM) | 0.125 µg/mL (≈ 0.0993 µM) | 0.25 µg/mL (≈ 0.199 µM) | 0.25 µg/mL (≈ 0.199 µM) | 0.06 µg/mL (≈ 0.0477 µM) | 0.03 µg/mL (≈ 0.0238 µM) | 0.03 µg/mL (≈ 0.0238 µM) |
| CCCCCCCCC(=O)N[C@@H](CCN)C(=O)N[C@H](C(=O)N[C@H](CO)C(=O)N[C@H]1CCNC(=O)[C@H]([C@@H](C)O)NC(=O)[C@H](CCCN)NC(=O)[C@H](CCN)NC(=O)[C@H]([C@@H](C)O)NC(=O)[C@@H](Cc2ccccc2)NC(=O)[C@H](CCN)NC1=O)[C@@H](C)O [Compound 90, Nonanoyl-Dab-Thr-D-Ser-ring(4-10)[Dab-Dab-D-Phe-Thr-Dab-Orn-Thr]] (Nonanoyl-[Dab]T[dS][Dab][Dab][dF]T[Dab][Orn]T; lactam 4-C) | 320 ± 23.6 µg/mL (≈ 268 µM) | 0.25 µg/mL (≈ 0.21 µM) | 0.06 µg/mL (≈ 0.0503 µM) | 0.5 µg/mL (≈ 0.419 µM) | 64 µg/mL (≈ 53.7 µM) | >64 µg/mL | 0.03 µg/mL (≈ 0.0252 µM) | 0.25 µg/mL (≈ 0.21 µM) | 0.25 µg/mL (≈ 0.21 µM) |
| CCCCCCCCC(=O)N[C@@H](CCN)C(=O)N[C@H](C(=O)N[C@H](CO)C(=O)N[C@H]1CCNC(=O)[C@H]([C@@H](C)O)NC(=O)[C@H](CCN)NC(=O)[C@H](CCN)NC(=O)[C@H]([C@@H](C)O)NC(=O)[C@@H](Cc2ccccc2)NC(=O)[C@H](CCCN)NC1=O)[C@@H](C)O [Compound 70, Nonanoyl-Dab-Thr-D-Ser-ring(4-10)[Dab-Orn-D-Phe-Thr-Dab-Dab-Thr]] (Nonanoyl-[Dab]T[dS][Dab][Orn][dF]T[Dab][Dab]T; lactam 4-C) | 384 ± 29.5 µg/mL (≈ 322 µM) | 0.25 µg/mL (≈ 0.21 µM) | 0.25 µg/mL (≈ 0.21 µM) | 0.5 µg/mL (≈ 0.419 µM) | 8 µg/mL (≈ 6.71 µM) | 64 µg/mL (≈ 53.7 µM) | 0.25 µg/mL (≈ 0.21 µM) | 0.5 µg/mL (≈ 0.419 µM) | 0.5 µg/mL (≈ 0.419 µM) |
